Experimental data: ChEMBL document CHEMBL3991601, “The target landscape of clinical kinase drugs” (Science, 2017)
Active and inactive are the calls of the source.

Columns and labels:
[1] = target: Serine/threonine-protein kinase PAK 6 (Homo sapiens, UniProt Q9NQU5)
[2] = target: Mitogen-activated protein kinase 11 (Homo sapiens, UniProt Q15759)
[3] = target: T1, Serine/threonine-protein kinase STK11 (Homo sapiens, UniProt Q15831)
T1 sequence (Q15831 whole entry): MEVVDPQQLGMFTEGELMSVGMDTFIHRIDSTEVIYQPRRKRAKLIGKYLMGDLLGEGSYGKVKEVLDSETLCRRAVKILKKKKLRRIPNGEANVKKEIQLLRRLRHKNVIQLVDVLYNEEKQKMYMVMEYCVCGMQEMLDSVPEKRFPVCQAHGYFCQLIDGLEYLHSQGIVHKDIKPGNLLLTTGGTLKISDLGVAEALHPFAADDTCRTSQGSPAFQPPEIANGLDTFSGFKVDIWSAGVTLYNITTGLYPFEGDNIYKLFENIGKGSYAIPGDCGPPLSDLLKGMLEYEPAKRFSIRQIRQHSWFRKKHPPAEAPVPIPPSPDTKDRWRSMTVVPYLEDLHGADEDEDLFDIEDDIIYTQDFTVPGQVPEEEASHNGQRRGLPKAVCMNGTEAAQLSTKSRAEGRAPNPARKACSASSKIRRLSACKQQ

Septin-9 = target: T2, Septin-9 (Homo sapiens, UniProt Q9UHD8)
T2 sequence (Q9UHD8 whole entry): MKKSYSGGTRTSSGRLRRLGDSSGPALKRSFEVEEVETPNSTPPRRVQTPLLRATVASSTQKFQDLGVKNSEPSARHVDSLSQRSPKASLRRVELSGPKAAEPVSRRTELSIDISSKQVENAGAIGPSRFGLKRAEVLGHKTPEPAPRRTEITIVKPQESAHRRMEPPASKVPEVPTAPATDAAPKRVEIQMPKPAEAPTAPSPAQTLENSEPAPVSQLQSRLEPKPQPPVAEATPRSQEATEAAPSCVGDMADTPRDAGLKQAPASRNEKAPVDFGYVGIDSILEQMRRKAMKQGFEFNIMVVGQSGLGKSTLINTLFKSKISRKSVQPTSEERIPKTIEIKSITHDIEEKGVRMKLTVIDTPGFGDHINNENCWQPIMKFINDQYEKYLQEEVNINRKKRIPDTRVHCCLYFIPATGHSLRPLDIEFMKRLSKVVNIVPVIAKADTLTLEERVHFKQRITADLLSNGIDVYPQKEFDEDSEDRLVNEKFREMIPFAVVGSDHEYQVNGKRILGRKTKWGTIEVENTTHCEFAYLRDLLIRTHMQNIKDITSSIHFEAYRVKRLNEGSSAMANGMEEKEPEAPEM

[4] = target: Glycogen synthase kinase-3 beta (Homo sapiens, UniProt P49841)
[5] = target: Protein-tyrosine kinase 2-beta (Homo sapiens, UniProt Q14289)
[6] = target: Serine/threonine-protein kinase/endoribonuclease IRE1 (Homo sapiens, UniProt O75460)
[7] = target: T3, Peroxisomal acyl-coenzyme A oxidase 1 (Homo sapiens, UniProt Q15067)
T3 sequence (Q15067 whole entry): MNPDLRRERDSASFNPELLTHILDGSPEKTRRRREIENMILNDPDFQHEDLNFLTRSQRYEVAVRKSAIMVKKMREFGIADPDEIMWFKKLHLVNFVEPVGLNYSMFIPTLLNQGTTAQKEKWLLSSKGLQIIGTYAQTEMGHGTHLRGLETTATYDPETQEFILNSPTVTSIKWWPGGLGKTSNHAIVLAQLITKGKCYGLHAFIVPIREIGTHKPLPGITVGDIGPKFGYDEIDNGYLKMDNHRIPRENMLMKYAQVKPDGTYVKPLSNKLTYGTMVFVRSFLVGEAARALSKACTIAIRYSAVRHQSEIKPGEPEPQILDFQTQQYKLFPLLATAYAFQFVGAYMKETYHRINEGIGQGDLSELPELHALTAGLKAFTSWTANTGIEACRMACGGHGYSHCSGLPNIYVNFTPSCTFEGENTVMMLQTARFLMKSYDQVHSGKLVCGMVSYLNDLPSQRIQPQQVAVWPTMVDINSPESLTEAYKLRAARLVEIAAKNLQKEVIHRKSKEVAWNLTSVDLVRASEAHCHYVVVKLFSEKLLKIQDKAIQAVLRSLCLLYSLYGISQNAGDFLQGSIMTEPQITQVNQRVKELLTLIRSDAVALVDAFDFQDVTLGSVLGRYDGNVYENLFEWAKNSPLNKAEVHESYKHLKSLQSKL

[8] = target: T4, Serine/threonine-protein kinase NLK (Homo sapiens, UniProt Q9UBE8)
T4 sequence (Q9UBE8 whole entry): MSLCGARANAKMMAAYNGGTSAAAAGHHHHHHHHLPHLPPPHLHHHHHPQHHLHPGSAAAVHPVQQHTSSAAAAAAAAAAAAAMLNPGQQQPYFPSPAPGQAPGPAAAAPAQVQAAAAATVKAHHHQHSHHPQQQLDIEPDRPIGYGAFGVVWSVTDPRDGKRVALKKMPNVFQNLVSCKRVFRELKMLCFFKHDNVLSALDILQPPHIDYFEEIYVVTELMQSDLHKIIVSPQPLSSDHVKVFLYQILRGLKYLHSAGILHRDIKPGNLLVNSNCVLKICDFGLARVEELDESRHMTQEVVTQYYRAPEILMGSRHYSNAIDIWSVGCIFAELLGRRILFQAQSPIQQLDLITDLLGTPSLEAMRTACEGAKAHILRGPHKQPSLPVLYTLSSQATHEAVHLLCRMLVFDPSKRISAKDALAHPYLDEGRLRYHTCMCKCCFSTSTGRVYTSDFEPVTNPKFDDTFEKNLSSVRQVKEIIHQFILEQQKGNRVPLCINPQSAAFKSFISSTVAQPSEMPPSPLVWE

ADP/ATP translocase 2 = target: T5, ADP/ATP translocase 2 (Homo sapiens, UniProt P05141)
T5 sequence (P05141 whole entry): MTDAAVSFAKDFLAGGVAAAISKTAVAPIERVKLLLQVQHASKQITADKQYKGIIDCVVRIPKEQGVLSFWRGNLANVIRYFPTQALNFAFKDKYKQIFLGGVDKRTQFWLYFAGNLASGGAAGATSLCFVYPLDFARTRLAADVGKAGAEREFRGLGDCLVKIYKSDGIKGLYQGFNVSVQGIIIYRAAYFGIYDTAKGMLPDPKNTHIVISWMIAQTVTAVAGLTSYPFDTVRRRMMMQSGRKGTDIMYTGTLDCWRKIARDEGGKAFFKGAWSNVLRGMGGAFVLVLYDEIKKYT

[9] = target: MAP/microtubule affinity-regulating kinase 3 (Homo sapiens, UniProt P27448)
Also: in the data inactive means no Kd found up to 30 µM.

Sequence of Protein-tyrosine kinase 2-beta (Q14289 whole entry): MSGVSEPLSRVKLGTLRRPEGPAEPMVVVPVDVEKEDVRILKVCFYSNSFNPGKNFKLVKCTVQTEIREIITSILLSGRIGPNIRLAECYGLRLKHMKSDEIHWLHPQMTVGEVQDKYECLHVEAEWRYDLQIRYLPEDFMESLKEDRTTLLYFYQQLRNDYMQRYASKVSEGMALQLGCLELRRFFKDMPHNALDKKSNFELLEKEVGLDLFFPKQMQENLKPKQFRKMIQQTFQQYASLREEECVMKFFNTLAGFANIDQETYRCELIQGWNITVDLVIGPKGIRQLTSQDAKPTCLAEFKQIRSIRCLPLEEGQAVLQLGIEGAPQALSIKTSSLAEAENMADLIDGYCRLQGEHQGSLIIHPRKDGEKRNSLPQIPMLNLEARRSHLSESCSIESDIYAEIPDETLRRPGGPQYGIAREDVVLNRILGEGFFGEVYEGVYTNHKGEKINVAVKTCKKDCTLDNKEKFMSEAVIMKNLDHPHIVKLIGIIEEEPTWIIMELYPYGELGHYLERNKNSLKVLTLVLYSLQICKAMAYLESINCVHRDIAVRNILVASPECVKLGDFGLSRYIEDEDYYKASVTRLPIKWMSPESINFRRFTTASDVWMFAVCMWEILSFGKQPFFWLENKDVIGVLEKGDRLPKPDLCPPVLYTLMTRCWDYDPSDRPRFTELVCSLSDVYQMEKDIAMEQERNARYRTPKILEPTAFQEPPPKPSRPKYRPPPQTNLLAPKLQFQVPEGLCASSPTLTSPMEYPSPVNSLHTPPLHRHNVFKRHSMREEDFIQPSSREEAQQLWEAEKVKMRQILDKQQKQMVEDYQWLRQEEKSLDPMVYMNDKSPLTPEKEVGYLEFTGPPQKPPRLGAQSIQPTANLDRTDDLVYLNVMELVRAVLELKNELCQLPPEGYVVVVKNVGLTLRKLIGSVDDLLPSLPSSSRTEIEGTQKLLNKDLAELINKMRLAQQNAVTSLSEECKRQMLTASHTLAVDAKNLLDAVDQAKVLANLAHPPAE
Sequence of Glycogen synthase kinase-3 beta (P49841 whole entry): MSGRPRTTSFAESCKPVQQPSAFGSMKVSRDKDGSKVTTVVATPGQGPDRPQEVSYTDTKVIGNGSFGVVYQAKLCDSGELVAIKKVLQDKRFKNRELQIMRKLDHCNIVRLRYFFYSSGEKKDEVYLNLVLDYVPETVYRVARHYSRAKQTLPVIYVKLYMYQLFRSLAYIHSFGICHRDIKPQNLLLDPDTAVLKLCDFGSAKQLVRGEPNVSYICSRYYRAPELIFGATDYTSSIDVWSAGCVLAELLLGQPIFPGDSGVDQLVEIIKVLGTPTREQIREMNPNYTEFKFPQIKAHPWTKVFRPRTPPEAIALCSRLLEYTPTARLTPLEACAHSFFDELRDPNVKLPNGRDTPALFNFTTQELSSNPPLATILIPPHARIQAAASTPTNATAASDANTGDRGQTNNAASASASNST
Sequence of Serine/threonine-protein kinase/endoribonuclease IRE1 (O75460 whole entry): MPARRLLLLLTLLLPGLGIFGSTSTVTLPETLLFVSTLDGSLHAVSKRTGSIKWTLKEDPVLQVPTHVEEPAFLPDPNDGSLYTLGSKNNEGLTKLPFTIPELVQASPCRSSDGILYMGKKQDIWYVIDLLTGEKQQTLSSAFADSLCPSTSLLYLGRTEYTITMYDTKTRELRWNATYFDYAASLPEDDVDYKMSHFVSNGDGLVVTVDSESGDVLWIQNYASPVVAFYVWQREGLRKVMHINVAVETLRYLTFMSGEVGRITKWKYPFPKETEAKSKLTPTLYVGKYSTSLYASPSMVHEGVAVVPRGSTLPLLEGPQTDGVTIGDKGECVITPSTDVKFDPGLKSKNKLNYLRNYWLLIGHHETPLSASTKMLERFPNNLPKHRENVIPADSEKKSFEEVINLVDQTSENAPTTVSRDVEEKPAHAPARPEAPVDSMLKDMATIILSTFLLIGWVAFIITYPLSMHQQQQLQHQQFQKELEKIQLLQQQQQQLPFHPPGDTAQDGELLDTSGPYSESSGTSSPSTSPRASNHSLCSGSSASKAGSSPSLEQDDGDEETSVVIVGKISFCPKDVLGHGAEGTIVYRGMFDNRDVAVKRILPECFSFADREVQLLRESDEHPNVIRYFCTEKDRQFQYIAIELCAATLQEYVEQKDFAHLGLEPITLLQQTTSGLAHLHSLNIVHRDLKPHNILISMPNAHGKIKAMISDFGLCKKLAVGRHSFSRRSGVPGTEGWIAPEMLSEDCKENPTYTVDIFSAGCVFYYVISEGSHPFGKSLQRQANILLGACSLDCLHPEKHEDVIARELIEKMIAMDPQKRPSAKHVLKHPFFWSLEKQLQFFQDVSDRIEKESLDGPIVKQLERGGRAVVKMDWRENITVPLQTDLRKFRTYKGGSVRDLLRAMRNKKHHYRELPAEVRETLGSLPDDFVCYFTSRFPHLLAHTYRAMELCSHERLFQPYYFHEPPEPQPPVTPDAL
Sequence of Mitogen-activated protein kinase 11 (Q15759 whole entry): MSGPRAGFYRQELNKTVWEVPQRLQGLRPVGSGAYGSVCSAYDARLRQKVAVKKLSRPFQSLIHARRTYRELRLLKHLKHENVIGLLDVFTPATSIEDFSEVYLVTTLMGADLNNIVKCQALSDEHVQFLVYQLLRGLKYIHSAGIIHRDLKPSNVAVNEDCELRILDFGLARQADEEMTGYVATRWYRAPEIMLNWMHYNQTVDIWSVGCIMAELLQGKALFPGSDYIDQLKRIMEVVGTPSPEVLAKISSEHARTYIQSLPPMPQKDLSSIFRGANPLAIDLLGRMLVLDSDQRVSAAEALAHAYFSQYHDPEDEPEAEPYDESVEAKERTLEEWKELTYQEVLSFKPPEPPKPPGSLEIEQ
Sequence of MAP/microtubule affinity-regulating kinase 3 (P27448 whole entry): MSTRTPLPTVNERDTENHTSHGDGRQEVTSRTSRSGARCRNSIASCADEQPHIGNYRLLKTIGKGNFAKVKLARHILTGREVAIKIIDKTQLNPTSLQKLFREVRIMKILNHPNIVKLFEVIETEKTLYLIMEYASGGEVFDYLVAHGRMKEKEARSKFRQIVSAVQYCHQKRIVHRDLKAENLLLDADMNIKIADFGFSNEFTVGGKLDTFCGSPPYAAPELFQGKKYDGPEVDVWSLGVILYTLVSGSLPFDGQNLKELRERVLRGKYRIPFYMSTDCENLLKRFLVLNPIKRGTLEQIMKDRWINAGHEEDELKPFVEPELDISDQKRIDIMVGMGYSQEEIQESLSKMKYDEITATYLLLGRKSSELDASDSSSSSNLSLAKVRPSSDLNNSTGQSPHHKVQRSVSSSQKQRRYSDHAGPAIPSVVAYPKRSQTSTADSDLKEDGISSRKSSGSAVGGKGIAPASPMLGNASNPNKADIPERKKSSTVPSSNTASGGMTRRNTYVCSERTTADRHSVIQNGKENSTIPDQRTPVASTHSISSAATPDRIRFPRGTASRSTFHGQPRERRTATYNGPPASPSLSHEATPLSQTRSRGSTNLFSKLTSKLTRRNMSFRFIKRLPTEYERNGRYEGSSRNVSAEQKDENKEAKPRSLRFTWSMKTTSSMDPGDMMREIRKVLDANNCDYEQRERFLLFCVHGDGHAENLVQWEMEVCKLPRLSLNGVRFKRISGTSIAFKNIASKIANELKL
Sequence of Serine/threonine-protein kinase PAK 6 (Q9NQU5 whole entry): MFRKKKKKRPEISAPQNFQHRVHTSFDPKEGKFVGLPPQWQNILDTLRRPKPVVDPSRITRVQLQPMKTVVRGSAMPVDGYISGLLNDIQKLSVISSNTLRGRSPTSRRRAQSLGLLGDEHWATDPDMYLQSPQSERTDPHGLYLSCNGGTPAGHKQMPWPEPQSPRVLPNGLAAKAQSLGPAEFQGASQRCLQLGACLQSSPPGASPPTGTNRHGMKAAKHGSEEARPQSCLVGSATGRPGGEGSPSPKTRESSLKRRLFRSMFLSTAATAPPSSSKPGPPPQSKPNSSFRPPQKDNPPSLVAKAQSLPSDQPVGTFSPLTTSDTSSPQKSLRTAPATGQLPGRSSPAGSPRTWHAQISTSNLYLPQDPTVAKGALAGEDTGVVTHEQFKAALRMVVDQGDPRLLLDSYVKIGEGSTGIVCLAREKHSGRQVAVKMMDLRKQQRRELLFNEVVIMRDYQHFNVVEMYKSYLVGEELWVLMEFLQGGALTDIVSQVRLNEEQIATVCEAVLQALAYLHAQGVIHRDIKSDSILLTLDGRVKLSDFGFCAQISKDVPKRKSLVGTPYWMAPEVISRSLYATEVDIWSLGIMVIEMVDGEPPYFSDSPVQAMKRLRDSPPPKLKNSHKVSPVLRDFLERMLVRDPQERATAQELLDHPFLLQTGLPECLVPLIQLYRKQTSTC

| Kd [1] | Kd [2] | Kd [3] | Kd (Septin-9) | Kd [4] | Kd [5] | Kd [6] | Kd [7] | Kd [8] | Kd (ADP/ATP translocase 2) | Kd [9] | SMILES |
| --- | --- | --- | --- | --- | --- | --- | --- | --- | --- | --- | --- |
| > 30 µM (inactive) | > 30 µM (inactive) | > 30 µM (inactive) | > 30 µM (inactive) | > 30 µM (inactive) | > 30 µM (inactive) | > 30 µM (inactive) | > 30 µM (inactive) | > 30 µM (inactive) | > 30 µM (inactive) | > 30 µM (inactive) | CO[C@H]1C[C@@H]2CC[C@@H](C)[C@@](O)(O2)C(=O)C(=O)N2CCCC[C@H]2C(=O)O[C@H]([C@H](C)C[C@@H]2CC[C@@H](OC(=O)C(C)(CO)CO)[C@H](OC)C2)CC(=O)[C@H](C)/C=C(\C)[C@@H](O)[C@@H](OC)C(=O)[C@H](C)C[C@H](C)/C=C/C=C/C=C/1C [TEMSIROLIMUS] |
| > 30 µM (inactive) | > 30 µM (inactive) | > 30 µM (inactive) | > 30 µM (inactive) | > 30 µM (inactive) | > 30 µM (inactive) | > 30 µM (inactive) | > 30 µM (inactive) | > 30 µM (inactive) | > 30 µM (inactive) | > 30 µM (inactive) | COc1cc2c(Nc3ccc(Cl)c(Cl)c3F)ncnc2cc1OC[C@@H]1C[C@@H]2CN(C)C[C@@H]2C1 [TESEVATINIB] |
| > 30 µM (inactive) | > 30 µM (inactive) | 3.08 µM | > 30 µM (inactive) | > 30 µM (inactive) | 0.118 µM (active) | > 30 µM (inactive) | > 30 µM (inactive) | > 30 µM (inactive) | > 30 µM (inactive) | 0.133 µM (active) | CC(C)c1cc(CNc2nc(Nc3cc(C4CC4)[nH]n3)cc(N3CCN(C)CC3)n2)on1 [XL-228] |
| > 30 µM (inactive) | > 30 µM (inactive) | > 30 µM (inactive) | > 30 µM (inactive) | 0.924 µM (active) | > 30 µM (inactive) | > 30 µM (inactive) | > 30 µM (inactive) | > 30 µM (inactive) | > 30 µM (inactive) | 38.5 µM (active) | C[C@@H](N)c1ccc(C(=O)Nc2ccnc3[nH]ccc23)cc1 [Y-39983] |
